Consider 23 molecules from patent US7560458B2, “Triazolopyrimidine derivatives as glycogen synthase kinase 3 inhibitors” (Janssen Pharmaceutica, N.V., priority 2003, dated 2009).

For test [1], the target named is GSK3β (Homo sapiens, UniProt P49841). Description: GSK3beta assay (SPA, biotinylated phosphorylated CREB peptide, ATP-P33). The class given is biochemical. To be noted: −log IC50 (M); given as ranges (>8; 7-8; <7); read-out: pIC50 (GSK3beta) (converted). As for the experimental part:
(§1) GSK3beta assays were performed at room temperature in a 100 μl reaction volume of 25 mM Tris (ph 7.4) containing 10 mM MgCl2.6H2O 1 mM DTT, 0.1 mg/ml BSA, 5% glyceol and containing 5.7 ng/μl GSK3β, 5 μM biotinylated phosphorylated CREB peptide, 1 μM APT, 0.85 μCi/ml ATP-P^33 and a suitable amount of a test compound of formula (I). After one hour, the reaction was terminated by adding 70 μl of Stop mix (0.1 mM APT, 5 mg/ml streptavidin coated PVT SPA bead pH 11.0). The beads to which the phosphorylated CREB peptide is attached were allowed to settle overnight and the radioactivity of the beads was counted in a microtiterplate scintillation counter and compared with the results obtained in a control experiment (without the presence of a test compound) in order to determine the percentage of GSK3β inhibition. The IC50 value, i.e. the concentration (M) of the test compound at which 50% of GSK3β is inhibited, was calculated from the dose response curve obtained by performing the above-described GSKK3β assay in the presence of different amounts of the test compound.

Test [2] addresses GSK3alpha (Homo sapiens, UniProt P49840). Description: GSK3alpha assay (same as the GSK3beta assay, GSK3alpha 0.25 ng/μl). To be noted: −log IC50 (M); given as ranges (>8; 7-8; <7); read-out: pIC50 (GSK3alpha) (converted). It is filed as biochemical. How it is done:
as §1
The GSK3alpha assay was performed in the same way as described above for the GSK3beta assay except for the concentration of GSK3alpha which is 0.25 ng/μl.

Bounds are passed on as bounds.

GSK3alpha, sequence (P49840 whole entry, species assumed): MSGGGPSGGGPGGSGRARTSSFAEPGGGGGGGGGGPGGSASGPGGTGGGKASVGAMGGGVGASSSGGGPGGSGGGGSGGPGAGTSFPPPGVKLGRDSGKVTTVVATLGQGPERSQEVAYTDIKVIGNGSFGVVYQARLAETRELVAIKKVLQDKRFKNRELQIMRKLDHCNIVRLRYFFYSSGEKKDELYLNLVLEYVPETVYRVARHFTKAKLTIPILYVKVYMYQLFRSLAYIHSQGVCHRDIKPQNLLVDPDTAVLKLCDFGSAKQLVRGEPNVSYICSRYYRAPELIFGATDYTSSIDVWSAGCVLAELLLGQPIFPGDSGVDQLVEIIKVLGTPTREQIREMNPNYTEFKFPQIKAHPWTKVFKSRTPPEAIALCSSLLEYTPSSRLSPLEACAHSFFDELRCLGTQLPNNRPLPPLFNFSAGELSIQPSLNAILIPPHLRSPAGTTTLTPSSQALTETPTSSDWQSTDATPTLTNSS
GSK3β, sequence (P49841 whole entry, species assumed): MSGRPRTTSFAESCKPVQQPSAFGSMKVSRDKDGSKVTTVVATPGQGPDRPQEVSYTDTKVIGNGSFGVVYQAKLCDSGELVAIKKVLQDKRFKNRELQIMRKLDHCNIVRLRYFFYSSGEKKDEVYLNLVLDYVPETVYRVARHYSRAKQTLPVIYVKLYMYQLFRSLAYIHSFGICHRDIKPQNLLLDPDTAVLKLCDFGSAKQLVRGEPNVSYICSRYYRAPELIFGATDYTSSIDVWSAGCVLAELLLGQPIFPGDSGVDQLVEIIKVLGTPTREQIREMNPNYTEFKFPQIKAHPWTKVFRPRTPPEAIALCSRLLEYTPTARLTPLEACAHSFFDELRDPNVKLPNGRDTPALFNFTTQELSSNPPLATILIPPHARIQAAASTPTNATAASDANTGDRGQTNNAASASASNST

On to `COCc1cccc(-n2nnc3cnc(Nc4ccc(C(=O)O)c(Cl)c4)nc32)c1` [Compound 138], for which the IC50 in test [1] and in test [2] was under 1e-08 M each time.

As to `COCc1cccc(-n2nnc3cnc(Nc4ccc(CCO)cc4)nc32)c1` [Compound 139], the IC50 in test [1] and in test [2] was under 1e-08 M in each case.

For the molecule `CNS(=O)(=O)c1cccc(Nc2ncc3nnn(-c4cccc(CNC(C)=O)c4)c3n2)c1` [Compound 140], the IC50 in test [1] and in test [2] was under 1e-08 M each time.

`COCc1cccc(-n2nnc3cnc(Nc4cccc(S(=O)(=O)NCC(N)=O)c4)nc32)c1` [Compound 141]: the IC50 in test [1] and in test [2] was 1e-08 to 1e-07 M each time.

Take `COCc1cccc(-n2nnc3cnc(Nc4cccc(S(=O)(=O)NCCO)c4)nc32)c1` [Compound 142]: the IC50 in test [1] and in test [2] was under 1e-08 M each time.

Consider `COCc1cccc(-n2nnc3cnc(Nc4cccc(C(C)O)c4)nc32)c1` (stereo not shown) [Compound 143], for which the IC50 in test [1] and in test [2] was under 1e-08 M each time.

`COCc1cccc(-n2nnc3cnc(Nc4cccc(CO)c4)nc32)c1` [Compound 144]: the IC50 in test [1] and in test [2] was under 1e-08 M each time.

In the case of `NS(=O)(=O)c1ccc(Nc2ncc3nnn(-c4cccc(F)c4)c3n2)cc1` [Compound 145], the IC50 in test [1] and in test [2] was under 1e-08 M in each case.

`COCc1cccc(-n2nnc3cnc(Nc4ccc(S(N)(=O)=O)cc4)nc32)c1` [Compound 146]: the IC50 in test [1] and in test [2] was under 1e-08 M in each case.

Regarding `OCCc1ccc(Nc2ncc3nnn(-c4cccc(F)c4)c3n2)cc1` [Compound 147], the IC50 in test [1] and in test [2] was under 1e-08 M in each case.

`COCc1cccc(-n2nnc3cnc(Nc4cccc(C(=O)NCCNC(C)=O)c4)nc32)c1` [Compound 149]: the IC50 in test [1] was 1e-08 to 1e-07 M; in test [2], under 1e-08 M.

On to `OCCc1cccc(Nc2ncc3nnn(-c4cccc(F)c4)c3n2)c1` [Compound 150], for which the IC50 in test [1] and in test [2] was under 1e-08 M each time.

Regarding `COCc1cccc(-n2nnc3cnc(Nc4cccc(CCO)c4)nc32)c1` [Compound 151], the IC50 in test [1] and in test [2] was under 1e-08 M throughout.

Regarding `NC(=O)Cc1cccc(Nc2ncc3nnn(-c4cccc(F)c4)c3n2)c1` [Compound 153], the IC50 in test [1] and in test [2] was under 1e-08 M throughout.

In the case of `COCc1cccc(-n2nnc3cnc(Nc4cccc(S(=O)(=O)NCCNC(C)=O)c4)nc32)c1` [Compound 154], the IC50 in test [1] and in test [2] was 1e-08 to 1e-07 M throughout.

As for `COCC(=O)NCc1cccc(-n2nnc3cnc(Nc4ccc(C(=O)O)cc4)nc32)c1` [Compound 155], the IC50 is 1e-08 to 1e-07 M in test [1] and under 1e-08 M in test [2].

In the case of `COCC(=O)NCc1cccc(-n2nnc3cnc(Nc4cccc(NC(C)=O)c4)nc32)c1` [Compound 156], the IC50 in test [1] and in test [2] was under 1e-08 M in each case.

As to `COCC(=O)NCc1cccc(-n2nnc3cnc(Nc4ccc(NC(C)=O)c(C(=O)OC)c4)nc32)c1` [Compound 157], the IC50 in test [1] and in test [2] was under 1e-08 M in each case.

As to `COCC(=O)NCc1cccc(-n2nnc3cnc(Nc4cccc(NS(C)(=O)=O)c4)nc32)c1` [Compound 158], the IC50 in test [1] and in test [2] was under 1e-08 M throughout.

On to `NS(=O)(=O)c1ccc(Nc2ncc3nnn(-c4cccc(CC(=O)O)c4)c3n2)cc1` [Compound 160], for which the IC50 in test [1] and in test [2] was 1e-08 to 1e-07 M in each case.

Turning to `CC(=O)NCc1cccc(Nc2ncc3nnn(-c4cccc(CCO)c4)c3n2)c1` [Compound 167], the IC50 in test [1] and in test [2] was under 1e-08 M in each case.

As to `COCc1cccc(Nc2ncc3nnn(-c4cccc(CCO)c4)c3n2)c1` [Compound 168], the IC50 in test [1] and in test [2] was under 1e-08 M in each case.

Regarding `NS(=O)(=O)c1ccc(Nc2ncc3nnn(-c4cccc(CCO)c4)c3n2)cc1` [Compound 169], the IC50 in test [1] and in test [2] was under 1e-08 M each time.
